# Source: the supplement of paper PMC10883282
# ± gives the standard deviation of the averaged measurements.
# System: SYO-1
# Experiment: relative viability vs DMSO control (72 h) (fraction); higher = more viable cells
# Method in brief: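 Sarcoma cell lines were seeded in 384-well plates at densities set to reach 80–90% confluence. After 24 h, 2.5 µl of serially diluted compound was added (source plates 10 mM to 0.0002 mM), and plates were held 72 h at 37 °C, 5% CO2, with 0.1% DMSO vehicle and a 5 µM positive control. Relative viability came from ATPLite readings as percent growth, averaged over up to triplicate wells. Data were rescaled so full viability equals 1 and none equals 0.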
Structure (SMILES),relative viability (0.00017 µM),relative viability (0.00051 µM),relative viability (0.00152 µM),relative viability (0.00457 µM),relative viability (0.01372 µM),relative viability (0.04115 µM),relative viability (0.1235 µM),relative viability (0.3704 µM),relative viability (1.111 µM),relative viability (3.333 µM),relative viability (10 µM),relative viability (2 pM),relative viability (5 pM),relative viability (15 pM),relative viability (50 pM),relative viability (0.00014 µM),relative viability (0.00041 µM),relative viability (0.0012 µM),relative viability (0.0037 µM),relative viability (0.011 µM),relative viability (200 fM),relative viability (600 fM)
Cc1ccc(F)c(NC(=O)Nc2ccc(-c3cccc4[nH]nc(N)c34)cc2)c1 [Linifanib],0.98 ± 0.036,0.968 ± 0.087,0.957 ± 0.066,0.941 ± 0.035,0.906 ± 0.049,0.845 ± 0.085,0.76 ± 0.13,0.751 ± 0.093,0.769 ± 0.016,0.753 ± 0.055,0.711 ± 0.031,–,–,–,–,–,–,–,–,–,–,–
C[C@]1(O)C[C@@H](c2nc(-c3ccc4ccc(-c5ccccc5)nc4c3)c3c(N)nccn32)C1 [Linsitinib],1.01 ± 0.043,1.01 ± 0.013,0.97 ± 0.046,0.969 ± 0.018,0.922 ± 0.035,0.87 ± 0.083,0.857 ± 0.035,0.823 ± 0.012,0.833 ± 0.04,0.734 ± 0.025,0.57 ± 0.028,–,–,–,–,–,–,–,–,–,–,–
Cc1ccc(NC(=O)c2ccc(CN3CCN(C)CC3)cc2)cc1Nc1nc(-c2cccnc2)cs1 [Masitinib],1.04 ± 0.023,1.02 ± 0.02,1.01 ± 0.027,1.01 ± 0.026,0.974 ± 0.026,0.916 ± 0.039,0.801 ± 0.021,0.676 ± 0.032,0.553 ± 0.038,0.242 ± 0.033,-0.0235 ± 0.0061,–,–,–,–,–,–,–,–,–,–,–
CC1(C)CNc2cc(NC(=O)c3cccnc3NCc3ccncc3)ccc21 [Motesanib],0.962 ± 0.012,0.979 ± 0.043,0.996 ± 0.05,0.974 ± 0.043,0.973 ± 0.025,0.914 ± 0.036,0.866 ± 0.029,0.777 ± 0.054,0.724 ± 0.021,0.648 ± 0.016,0.494 ± 0.019,–,–,–,–,–,–,–,–,–,–,–
CC(C)N1CCN(Cc2cnc(-c3cc(-c4cccc5[nH]ccc45)cc4[nH]ncc34)o2)CC1 [Nemiralisib],1.02 ± 0.013,0.981 ± 0.046,0.981 ± 0.036,0.974 ± 0.049,0.981 ± 0.025,0.991 ± 0.02,0.9659 ± 0.0068,0.968 ± 0.017,0.882 ± 0.025,0.697 ± 0.028,-0.0515 ± 0.012,–,–,–,–,–,–,–,–,–,–,–
C=CC(=O)Nc1cccc(Oc2nc(Nc3ccc(N4CCN(C)CC4)cc3)nc3ccsc23)c1 [Olmutinib],0.957 ± 0.02,0.985 ± 0.043,0.955 ± 0.018,0.952 ± 0.01,0.953 ± 0.021,0.9712 ± 0.0081,0.972 ± 0.037,0.933 ± 0.017,0.908 ± 0.045,0.698 ± 0.044,-0.00933 ± 0.0049,–,–,–,–,–,–,–,–,–,–,–
CC(C)(C)c1cc(NC(=O)Nc2ccc(-c3cn4c(n3)sc3cc(OCCN5CCOCC5)ccc34)cc2)no1 [Quizartinib],0.978 ± 0.017,0.963 ± 0.02,0.973 ± 0.044,0.943 ± 0.035,0.935 ± 0.034,0.9229 ± 0.0014,0.873 ± 0.015,0.715 ± 0.043,0.67 ± 0.046,0.646 ± 0.034,0.627 ± 0.044,–,–,–,–,–,–,–,–,–,–,–
CNC(=O)c1cc(Oc2ccc(NC(=O)Nc3ccc(Cl)c(C(F)(F)F)c3)c(F)c2)ccn1 [Regorafenib],1.02 ± 0.039,1.022 ± 0.0037,1.04 ± 0.05,1.01 ± 0.035,1.03 ± 0.02,0.999 ± 0.05,0.954 ± 0.065,0.755 ± 0.038,0.572 ± 0.022,0.476 ± 0.016,0.217 ± 0.016,–,–,–,–,–,–,–,–,–,–,–
CO[C@H]1C[C@@H]2CC[C@@H](C)[C@@](O)(O2)C(=O)C(=O)N2CCCC[C@H]2C(=O)O[C@H]([C@H](C)C[C@@H]2CC[C@@H](OP(C)(C)=O)[C@H](OC)C2)CC(=O)[C@H](C)/C=C(\C)[C@@H](O)[C@@H](OC)C(=O)[C@H](C)C[C@H](C)/C=C/C=C/C=C/1C [Ridaforolimus],0.941 ± 0.022,0.924 ± 0.024,0.915 ± 0.026,0.89 ± 0.037,0.868 ± 0.035,0.832 ± 0.041,0.79 ± 0.042,0.775 ± 0.038,0.748 ± 0.056,0.707 ± 0.058,0.672 ± 0.062,–,–,–,–,–,–,–,–,–,–,–
COCc1c(-c2cc3cc(C)cc(OC)c3s2)c2c(N)ncnn2c1CN1CCNC(=O)C1 [Rogaratinib],1.01 ± 0.048,0.974 ± 0.054,0.952 ± 0.059,0.924 ± 0.067,0.84 ± 0.059,0.765 ± 0.082,0.634 ± 0.05,0.613 ± 0.071,0.6 ± 0.057,0.568 ± 0.056,0.464 ± 0.06,–,–,–,–,–,–,–,–,–,–,–
N#CC[C@H](C1CCCC1)n1cc(-c2ncnc3[nH]ccc23)cn1 [Ruxolitinib],0.969 ± 0.039,0.975 ± 0.034,0.958 ± 0.035,0.945 ± 0.029,0.964 ± 0.026,0.969 ± 0.059,0.931 ± 0.043,0.941 ± 0.095,0.945 ± 0.048,0.892 ± 0.037,0.641 ± 0.014,–,–,–,–,–,–,–,–,–,–,–
Cc1cc(C)c(/C=C2\C(=O)Nc3ccccc32)[nH]1 [Semaxanib],0.922 ± 0.014,0.915 ± 0.01,0.917 ± 0.014,0.908 ± 0.025,0.87 ± 0.035,0.824 ± 0.056,0.774 ± 0.047,0.721 ± 0.03,0.649 ± 0.046,0.632 ± 0.041,0.579 ± 0.0071,–,–,–,–,–,–,–,–,–,–,–
Cc1nc(-c2cn3c(n2)-c2ccc(-c4cnn(C(C)(C)C(N)=O)c4)cc2OCC3)n(C(C)C)n1 [Taselisib],0.9262 ± 0.0077,0.924 ± 0.029,0.924 ± 0.035,0.895 ± 0.051,0.864 ± 0.042,0.794 ± 0.053,0.759 ± 0.041,0.721 ± 0.046,0.684 ± 0.046,0.61 ± 0.034,0.476 ± 0.033,–,–,–,–,–,–,–,–,–,–,–
CN1CCC(COc2cnc(-c3cccc(Cn4nc(-c5cccc(C#N)c5)ccc4=O)c3)nc2)CC1 [Tepotinib],1 ± 0.042,0.983 ± 0.042,0.974 ± 0.063,0.919 ± 0.061,0.946 ± 0.05,0.912 ± 0.038,0.916 ± 0.031,0.931 ± 0.06,0.884 ± 0.037,0.824 ± 0.033,0.608 ± 0.055,–,–,–,–,–,–,–,–,–,–,–
COc1cc2nccc(Oc3ccc(NC(=O)Nc4cc(C)on4)c(Cl)c3)c2cc1OC [Tivozanib],0.97 ± 0.049,0.952 ± 0.04,0.935 ± 0.051,0.941 ± 0.023,0.887 ± 0.051,0.796 ± 0.053,0.765 ± 0.02,0.706 ± 0.03,0.618 ± 0.065,0.523 ± 0.025,0.393 ± 0.027,–,–,–,–,–,–,–,–,–,–,–
C[C@@H]1CCN(C(=O)CC#N)C[C@@H]1N(C)c1ncnc2[nH]ccc12 [Tofacitinib],1.01 ± 0.051,0.969 ± 0.061,0.966 ± 0.072,0.923 ± 0.024,0.887 ± 0.039,0.902 ± 0.062,0.916 ± 0.043,0.888 ± 0.02,0.891 ± 0.053,0.868 ± 0.032,0.766 ± 0.044,–,–,–,–,–,–,–,–,–,–,–
COc1cc2c(cc1O)CCN[C@]21CS[C@@H]2c3c(OC(C)=O)c(C)c4c(c3[C@H](COC1=O)N1[C@@H]2[C@H]2c3c(cc(C)c(OC)c3O)C[C@@H]([C@@H]1O)N2C)OCO4 [Trabectedin],–,–,–,–,–,–,–,–,–,–,–,0.489 ± 0.027,0.422 ± 0.039,0.299 ± 0.027,0.194 ± 0.13,0.0855 ± 0.18,0.0855 ± 0.18,0.26 ± 0.031,0.315 ± 0.0091,0.312 ± 0.02,0.4804 ± 0.002,0.512 ± 0.024
CC(=O)Nc1cccc(-n2c(=O)n(C3CC3)c(=O)c3c(Nc4ccc(I)cc4F)n(C)c(=O)c(C)c32)c1 [Trametinib],0.997 ± 0.025,0.983 ± 0.057,0.925 ± 0.031,0.889 ± 0.034,0.865 ± 0.027,0.832 ± 0.056,0.765 ± 0.05,0.735 ± 0.038,0.687 ± 0.061,0.687 ± 0.037,0.671 ± 0.048,–,–,–,–,–,–,–,–,–,–,–
Cc1cc(Nc2ncnc3ccc(NC4=NC(C)(C)CO4)cc23)ccc1Oc1ccn2ncnc2c1 [Tucatinib],1.03 ± 0.024,1.04 ± 0.026,1.02 ± 0.015,1.01 ± 0.021,0.99 ± 0.027,0.981 ± 0.038,1.01 ± 0.022,0.97 ± 0.064,0.969 ± 0.019,0.959 ± 0.027,0.841 ± 0.041,–,–,–,–,–,–,–,–,–,–,–
